Data reported in patent US12721838B2 (Henry Ford Health System, priority 2020, dated 2026).
“Also recorded” adds a separate entry of the source. Where a SMILES comes first, the peptide text is derived from it. The star is where a group is joined. Cbz = O=C(OCc1ccccc1)*; CH2F = FC*

Each molecule was assayed on LNCaP-ENR cells (assay: Apoptosis by Annexin V binding, flow cytometry). Conditions: ERPC cells pretreated.
Assay type: cell-based, human
Description: To test DCV effects on cancer cell apoptosis, LNCaP-ENR cells were treated with 8 μM DCV for 24 hours and analyzed by flow cytometry. Treatment with DCV indicated increased Annexin V binding, a read-out for apoptosis (FIG. 3C).

In the case of `COC(=O)C[C@H](NC(=O)[C@H](C)NC(=O)[C@@H](NC(=O)OCc1ccccc1)C(C)C)C(=O)CF` [Z-VAD-FMK] (Cbz-Val-Ala-Asp(OMe)-CH2F), the “DCV treatment-induced apoptosis after pretreatment with caspase inhibitor” value is reported as “inhibited”.

What follows are molecules tested against T1, Trib2-Luciferase (Luc-Trib2) fusion (Homo sapiens, UniProt Q92519) (assay: not given). Conditions: 10 µM.
T1 sequence (Q92519 with tags, fused parts or gaps): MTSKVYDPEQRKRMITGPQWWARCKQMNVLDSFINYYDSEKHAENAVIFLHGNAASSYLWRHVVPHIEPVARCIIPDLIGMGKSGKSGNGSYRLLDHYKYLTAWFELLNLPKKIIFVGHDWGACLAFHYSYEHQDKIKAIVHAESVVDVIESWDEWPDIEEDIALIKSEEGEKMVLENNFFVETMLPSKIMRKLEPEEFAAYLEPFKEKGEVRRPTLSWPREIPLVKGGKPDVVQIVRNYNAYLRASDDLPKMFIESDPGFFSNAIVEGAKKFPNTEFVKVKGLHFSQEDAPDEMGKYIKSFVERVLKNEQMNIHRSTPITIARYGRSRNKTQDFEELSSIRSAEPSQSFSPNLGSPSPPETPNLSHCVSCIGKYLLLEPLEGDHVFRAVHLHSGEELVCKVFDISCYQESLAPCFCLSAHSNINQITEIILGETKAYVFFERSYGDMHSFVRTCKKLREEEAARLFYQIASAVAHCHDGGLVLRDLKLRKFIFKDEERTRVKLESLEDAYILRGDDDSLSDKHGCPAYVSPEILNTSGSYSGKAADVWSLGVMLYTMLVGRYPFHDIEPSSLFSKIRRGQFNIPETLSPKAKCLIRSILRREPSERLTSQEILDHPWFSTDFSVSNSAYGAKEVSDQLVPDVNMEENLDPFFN

Point of comparison: `COC(=O)[C@H]1[C@H]2C[C@@H]3c4[nH]c5cc(OC)ccc5c4CCN3C[C@H]2C[C@@H](OC(=O)c2cc(OC)c(OC)c(OC)c2)[C@@H]1OC` [Resperine], “Luciferase activity (%)” value 91%. Against it:
- CC[C@H]1[C@@H]2C[C@H]3[C@@H]4N(C)c5ccccc5[C@]45C[C@@H]([C@@H]2[C@H]5O)N3[C@@H]1O [Ajamaline] — higher, 93%
- NS(=O)(=O)c1cc(Cl)c(Cl)c(S(N)(=O)=O)c1 [Dichlorphrnamide] — higher, 100%
- Niraparib tosylate — higher, 93%
- Temsirolmus — higher, 94%

Same assay, conditions: 10 μM, 24 hours, HFF-Trib2-Luc cells

For `CC(C)CN(C[C@@H](O)[C@H](Cc1ccccc1)NC(=O)O[C@H]1CO[C@H]2OCC[C@H]21)S(=O)(=O)c1ccc(N)cc1` [Darunavir], the “inhibition of Trib2-luciferase activity (in words)” value (“inhibition” below) was “completely ineffective; also recorded: not effective”.
`C[C@@H]1CCO[C@H]2Cn3cc(C(=O)NCc4ccc(F)cc4F)c(=O)c(O)c3C(=O)N12` [Dolutegravir] was tested, and the “inhibition” value was “completely ineffective; also recorded: not effective”.
For `Nc1nc2c(ncn2CCC(CO)CO)c(=O)[nH]1` [Penciclovir], the “inhibition” value was “not effective”.

Same assay, conditions: 10 μM, 24 hours; Trib2-Luciferase fusion construct-transfected HFF cells; […]

Point of comparison: `CC(=O)NCCCCCC(=O)O` [6-Acetamidohexanoic], “Luciferase activity (%)” value 100%. Against it:
- Nc1ccc(O)c(C(=O)O)c1 [5-Aminosalicyclic acid] — lower, 84%

What follows are molecules tested against T1, Trib2-Luciferase (Luc-Trib2) fusion (assay: cell-based). Conditions: HFF, read-out: Luciferase activity (%).

Point of comparison: `COc1cc([C@@H]2c3cc4c(cc3[C@@H](O[C@@H]3O[C@@H]5CO[C@@H](c6cccs6)O[C@H]5[C@H](O)[C@H]3O)[C@H]3COC(=O)[C@H]23)OCO4)cc(OC)c1O` [Teniposide], activity at 10 µM 70%. Against it:
- CC(C)CN(C[C@@H](O)[C@H](Cc1ccccc1)NC(=O)O[C@H]1CO[C@H]2OCC[C@H]21)S(=O)(=O)c1ccc(N)cc1 [Darunavir] — higher, 93%
- C[C@@H]1CCO[C@H]2Cn3cc(C(=O)NCc4ccc(F)cc4F)c(=O)c(O)c3C(=O)N12 [Dolutegravir] — higher, 100%
- Nc1nc2c(ncn2CCC(CO)CO)c(=O)[nH]1 [Penciclovir] — higher, 97%
- OB1OCc2cc(F)ccc21 [Tavaborole] — higher, 75%
- O=c1[nH]c(=O)n(C2CCCO2)cc1F (stereo not drawn) [Tegafur] — higher, 100%
- Cc1cn([C@@H]2C[C@@H](O)[C@H](CO)O2)c(=O)[nH]c1=O [Telbivudine] — higher, 91%
- CCOC(=O)[C@@H](N)Cc1ccc(-c2cc(O[C@H](c3ccc(Cl)cc3-n3ccc(C)n3)C(F)(F)F)nc(N)n2)cc1 [Telotristat etiprate] — higher, 94%
- CC(C)N1CCN(c2ccc(OCC3COC(Cn4cncn4)(c4ccc(Cl)cc4Cl)O3)cc2)CC1 (stereo not drawn) [Terconazole] — higher, 82%
- CC1(C)S[C@@H]2[C@H](NC(=O)[C@H](C(=O)O)c3ccsc3)C(=O)N2[C@H]1C(=O)O [Ticarcillin] — higher, 87%
- CN(C)c1cc(NC(=O)CNC(C)(C)C)c(O)c2c1C[C@H]1C[C@H]3[C@H](N(C)C)C(O)=C(C(N)=O)C(=O)[C@@]3(O)C(O)=C1C2=O [Tigecycline] — lower, 63%
- C[C@]12C=CC(=O)C=C1CC[C@H]1[C@@H]3C[C@@H](O)[C@](O)(C(=O)CO)[C@@]3(C)C[C@H](O)[C@@]12F [Triamcinolone] — higher, 72%
- Nc1nc(N)c2nc(-c3ccccc3)c(N)nc2n1 [Triamterene] — higher, 100%
- COc1ccc(CN2CCNCC2)c(OC)c1OC [Trimetazidine] — higher, 100%
- CCCOc1ccc(S(=O)(=O)NCCC2CCCN2C)cc1-c1nc2c(CCC)nn(C)c2c(=O)[nH]1 (stereo not drawn) [Udenafil] — higher, 100%
- C=C[C@]1(C)C[C@@H](OC(=O)CSC(C)(C)CNC(=O)[C@H](N)C(C)C)[C@]2(C)[C@H](C)CC[C@]3(CCC(=O)[C@H]32)[C@@H](C)[C@@H]1O [Valnemulin] — higher, 83%
- CC1(C)CCC(CN2CCN(c3ccc(C(=O)NS(=O)(=O)c4ccc(NCC5CCOCC5)c([N+](=O)[O-])c4)c(Oc4cnc5[nH]ccc5c4)c3)CC2)=C(c2ccc(Cl)cc2)C1 [Venetoclax] — higher, 184%
- CC[C@]12CCCN3CCc4c(n(c5ccccc45)[C@@](O)(C(=O)OC)C1)[C@@H]32 [Vincamine] — higher, 80%
- CCOC(=O)N[C@@H]1CC[C@@H]2[C@@H](C1)C[C@H]1C(=O)O[C@H](C)[C@H]1[C@H]2/C=C/c1ccc(-c2cccc(F)c2)cn1 [Vorapaxar] — lower, 59%
